Data taken from ChEMBL document CHEMBL1212697, “High-content single-cell drug screening with phosphospecific flow cytometry” (Nat Chem Biol, 2008).
Activity calls are given as the source filed them. No cut-off for these calls is given here.

Legend:
[1] = Inhibition of JAK-mediated IL7-induced Stat5 phosphorylation in BALB/c mouse CD8+ T cells by Phospho-Flow cytometry; format: cell-based; settings: T-cell
[2] = Inhibition of JAK-mediated IL15-induced Stat5 phosphorylation in BALB/c mouse CD11b-int macrophages by Phospho-Flow cytometry
[3] = Inhibition of JAK-mediated IL10-induced Stat3 phosphorylation in BALB/c mouse CD8+ T cells by Phospho-Flow cytometry; format: cell-based; settings: T-cell
[4] = Inhibition of JAK-mediated IL15-induced Stat5 phosphorylation in BALB/c mouse CD8+ T cells by Phospho-Flow cytometry; format: cell-based; settings: T-cell
[5] = Inhibition of JAK-mediated IL7-induced Stat5 phosphorylation in BALB/c mouse B cells by Phospho-Flow cytometry; format: cell-based
[6] = Inhibition of JAK-mediated IL4-induced Stat5 phosphorylation in BALB/c mouse CD8+ T cells by Phospho-Flow cytometry; format: cell-based; settings: T-cell
[7] = Inhibition of JAK-mediated IL4-induced Stat6 phosphorylation in BALB/c mouse CD11b-int macrophages by Phospho-Flow cytometry
[8] = target: T1, Janus Kinase (JAK) (Homo sapiens) (UniProt P52333+P23458+O60674+P29597); assay: Inhibition of JAK-mediated interferon-gamma-induced Stat1 phosphorylation in human U937 cells by Phospho-Flow cytometry at 20 uM; format: cell-based; settings: U-937
[9] = Inhibition of JAK-mediated IL6-induced Stat3 phosphorylation in BALB/c mouse CD8+ T cells by Phospho-Flow cytometry; format: cell-based; settings: T-cell
[10] = Inhibition of JAK-mediated IL6-induced Stat3 phosphorylation in BALB/c mouse CD4+ T cells by Phospho-Flow cytometry; format: cell-based; settings: T-cell
[11] = Inhibition of JAK-mediated interferon-gamma-induced Stat1 phosphorylation in BALB/c mouse B cells by Phospho-Flow cytometry; format: cell-based
[12] = Inhibition of JAK-mediated IL6-induced Stat3 phosphorylation in BALB/c mouse B cells by Phospho-Flow cytometry; format: cell-based
[13] = Inhibition of JAK-mediated IL6-induced Stat1 phosphorylation in BALB/c mouse B cells by Phospho-Flow cytometry; format: cell-based
[14] = Inhibition of JAK-mediated IL6-induced Stat1 phosphorylation in BALB/c mouse CD8+ T cells by Phospho-Flow cytometry; format: cell-based; settings: T-cell
[15] = Inhibition of JAK-mediated interferon-gamma-induced Stat1 phosphorylation in BALB/c mouse CD11b-int macrophages by Phospho-Flow cytometry
[16] = Inhibition of JAK-mediated IL4-induced Stat5 phosphorylation in BALB/c mouse CD11b-int macrophages by Phospho-Flow cytometry
[17] = Inhibition of JAK-mediated IL4-induced Stat5 phosphorylation in BALB/c mouse CD11b-hi neutrophils by Phospho-Flow cytometry
[18] = Inhibition of JAK-mediated IL4-induced Stat6 phosphorylation in BALB/c mouse CD8+ T cells by Phospho-Flow cytometry; format: cell-based; settings: T-cell
[19] = Inhibition of JAK-mediated IL10-induced Stat3 phosphorylation in BALB/c mouse B cells by Phospho-Flow cytometry; format: cell-based
[20] = Inhibition of JAK-mediated IL4-induced Stat6 phosphorylation in BALB/c mouse CD4+ T cells by Phospho-Flow cytometry; format: cell-based; settings: T-cell
[21] = Inhibition of JAK-mediated interferon-gamma-induced Stat1 phosphorylation in BALB/c mouse CD11b-hi neutrophils by Phospho-Flow cytometry
[22] = target: MAP kinase p38 (Homo sapiens, UniProt O15264+Q15759+Q16539+P53778); assay: Inhibition of anisomycin-induced p38 phosphorylation in human U937 cells by Phospho-Flow cytometry at 20 uM; format: cell-based; settings: U-937
[23] = Inhibition of JAK-mediated IL6-induced Stat1 phosphorylation in BALB/c mouse CD11b-hi neutrophils by Phospho-Flow cytometry
[24] = Inhibition of JAK-mediated IL15-induced Stat5 phosphorylation in BALB/c mouse B cells by Phospho-Flow cytometry; format: cell-based
[25] = Inhibition of JAK-mediated IL7-induced Stat5 phosphorylation in BALB/c mouse CD11b-int macrophages by Phospho-Flow cytometry
[26] = Inhibition of JAK-mediated IL10-induced Stat3 phosphorylation in BALB/c mouse CD11b-int macrophages by Phospho-Flow cytometry
[27] = Inhibition of JAK-mediated IL6-induced Stat3 phosphorylation in BALB/c mouse CD11b-int macrophages by Phospho-Flow cytometry
[28] = Inhibition of JAK-mediated IL6-induced Stat3 phosphorylation in BALB/c mouse CD11b-hi neutrophils by Phospho-Flow cytometry
[29] = Inhibition of JAK-mediated IL15-induced Stat5 phosphorylation in BALB/c mouse CD4+ T cells by Phospho-Flow cytometry; format: cell-based; settings: T-cell
[30] = Inhibition of JAK-mediated IL7-induced Stat5 phosphorylation in BALB/c mouse CD4+ T cells by Phospho-Flow cytometry; format: cell-based; settings: T-cell
[31] = target: T1, Janus Kinase (JAK) (Homo sapiens); assay: Inhibition of JAK-mediated GM-CSF-induced Stat5 phosphorylation in human U937 cells by Phospho-Flow cytometry at 20 uM; format: cell-based; settings: U-937
[32] = Inhibition of JAK-mediated IL10-induced Stat3 phosphorylation in BALB/c mouse CD11b-hi neutrophils by Phospho-Flow cytometry
[33] = Inhibition of JAK-mediated IL7-induced Stat5 phosphorylation in BALB/c mouse CD11b-hi neutrophils by Phospho-Flow cytometry
[34] = Inhibition of JAK-mediated IL15-induced Stat5 phosphorylation in BALB/c mouse CD11b-hi neutrophils by Phospho-Flow cytometry
[35] = Inhibition of JAK-mediated IL4-induced Stat5 phosphorylation in BALB/c mouse CD4+ T cells by Phospho-Flow cytometry; format: cell-based; settings: T-cell
[36] = Inhibition of JAK-mediated IL6-induced Stat1 phosphorylation in BALB/c mouse CD11b-int macrophages by Phospho-Flow cytometry
[37] = Inhibition of JAK-mediated interferon-gamma-induced Stat1 phosphorylation in BALB/c mouse CD4+ T cells by Phospho-Flow cytometry; format: cell-based; settings: T-cell
[38] = Inhibition of JAK-mediated IL4-induced Stat5 phosphorylation in BALB/c mouse B cells by Phospho-Flow cytometry; format: cell-based
[39] = Inhibition of JAK-mediated IL10-induced Stat3 phosphorylation in BALB/c mouse CD4+ T cells by Phospho-Flow cytometry; format: cell-based; settings: T-cell
[40] = Inhibition of JAK-mediated IL6-induced Stat1 phosphorylation in BALB/c mouse CD4+ T cells by Phospho-Flow cytometry; format: cell-based; settings: T-cell
[41] = target: T1, Janus Kinase (JAK) (Homo sapiens); assay: Inhibition of JAK-mediated interferon-gamma/anisomycin-induced Stat1 phosphorylation in human U937 cells by Phospho-Flow cytometry; format: cell-based; settings: U-937

SMILES: C/C=C/C1=C(Cl)C(=O)[C@H](Cl)[C@]1(O)C(=O)OC [CRYTOSPORIOPSIN]
- IC50 [1]: < 20 µM
- IC50 [2]: < 20 µM
- IC50 [3]: < 20 µM
- IC50 [4]: < 20 µM
- IC50 [5]: < 20 µM
- IC50 [6]: < 20 µM
- IC50 [7]: < 20 µM
- inhibition [8]: > 65%
- IC50 [9]: < 20 µM
- IC50 [10]: < 20 µM
- IC50 [11]: < 20 µM
- IC50 [12]: < 20 µM
- IC50 [13]: < 20 µM
- IC50 [14]: < 20 µM
- IC50 [15]: < 20 µM
- IC50 [16]: < 20 µM
- IC50 [17]: < 20 µM
- IC50 [18]: < 20 µM
- IC50 [19]: < 20 µM
- IC50 [20]: < 20 µM
- IC50 [21]: < 20 µM
- inhibition [22]: 25%
- IC50 [23]: < 20 µM
- IC50 [24]: < 20 µM
- IC50 [25]: < 20 µM
- IC50 [26]: < 20 µM
- IC50 [27]: < 20 µM
- IC50 [28]: < 20 µM
- IC50 [29]: < 20 µM
- IC50 [30]: < 20 µM
- inhibition [31]: Active
- IC50 [32]: < 20 µM
- IC50 [33]: < 20 µM
- IC50 [34]: < 20 µM
- IC50 [35]: < 20 µM
- IC50 [36]: < 20 µM

SMILES: CC(C)c1oc(=O)cc2c1[C@@H](O)[C@H]1OC(=O)[C@@]3(C)[C@@H](O)[C@H]4O[C@H]4[C@@]2(C)[C@@H]13
- inhibition [8]: inactive
- inhibition [22]: > 65%
- inhibition [31]: inactive

SMILES: CO[C@@H]1[C@@H](OC(=O)c2ccc(C)[nH]2)[C@@H](O)[C@@H](Oc2ccc3c(O)c(NC(=O)c4c[nH]c(C(=O)Nc5c(O)c6ccc(O[C@H]7OC(C)(C)[C@H](OC)[C@@H](OC(=O)c8ccc(C)[nH]8)[C@H]7O)c(C)c6oc5=O)c4C)c(=O)oc3c2C)OC1(C)C
- inhibition [8]: inactive
- inhibition [22]: inactive
- inhibition [31]: inactive

SMILES: C[C@H]1CC[C@@H]2[C@@H](C)[C@H]3[C@H](C[C@H]4[C@@H]5CC=C6C[C@@H](O[C@@H]7O[C@H](CO)[C@H](O)[C@H](O[C@@H]8O[C@H](CO)[C@@H](O)[C@H](O)[C@H]8O)[C@H]7O[C@H]7O[C@@H](C)[C@H](O)[C@@H](O)[C@H]7O)CC[C@]6(C)[C@H]5CC[C@]34C)N2C1
- inhibition [8]: > 65%
- inhibition [22]: 25%
- inhibition [31]: 25%

SMILES: O=Nc1c(-c2c(O)[nH]c3ccccc23)[nH]c2ccccc12 [INDIRUBIN-3-MONOXIME]
- IC50 [1]: < 20 µM
- IC50 [2]: < 20 µM
- IC50 [3]: < 20 µM
- IC50 [4]: < 20 µM
- IC50 [5]: < 20 µM
- IC50 [6]: < 20 µM
- IC50 [7]: < 20 µM
- IC50 [9]: < 20 µM
- IC50 [10]: < 20 µM
- IC50 [11]: < 20 µM
- IC50 [12]: < 20 µM
- IC50 [13]: < 20 µM
- IC50 [14]: < 20 µM
- IC50 [15]: < 20 µM
- IC50 [37]: < 20 µM
- IC50 [16]: < 20 µM
- IC50 [17]: < 20 µM
- IC50 [38]: < 20 µM
- IC50 [18]: < 20 µM
- IC50 [19]: < 20 µM
- IC50 [20]: < 20 µM
- IC50 [21]: < 20 µM
- IC50 [23]: < 20 µM
- IC50 [24]: < 20 µM
- IC50 [25]: < 20 µM
- IC50 [26]: < 20 µM
- IC50 [27]: < 20 µM
- IC50 [28]: < 20 µM
- IC50 [39]: < 20 µM
- IC50 [29]: < 20 µM
- IC50 [30]: < 20 µM
- IC50 [40]: < 20 µM
- IC50 [32]: < 20 µM
- IC50 [33]: < 20 µM
- IC50 [34]: < 20 µM
- IC50 [35]: < 20 µM
- IC50 [36]: < 20 µM

SMILES: CC(=O)O[C@@H]1CO[C@H]2O[C@H]3[C@@H](C(C=O)=C[C@H](O)[C@@H]4C5=C(C(C)C)CC[C@]5(C)CC[C@@]34C)[C@@]2(O)C1=O
- inhibition [8]: > 65%
- inhibition [22]: 25%
- inhibition [31]: Active

SMILES: CC(C)(C)c1nc2c3ccc(F)cc3c3c(=O)[nH]ccc3c2[nH]1
- Activity [41]: Active
- IC50 [13]: < 20 µM
- IC50 [19]: > 20 µM

SMILES: CC1OC(CC(=O)O)CC2=C1C(=O)c1c(O)cccc1C2=O (stereo not drawn)
- inhibition [8]: > 65%
- inhibition [22]: 25%
- inhibition [31]: 25%

SMILES: CC(C)=CC(=O)O[C@H]1[C@H]2[C@H](OC(=O)[C@H]2C)[C@H](O)[C@@H](C)[C@@H]2C=CC(=O)[C@]21C
- inhibition [8]: > 65%
- inhibition [22]: 25%
- inhibition [31]: 25%

SMILES: CC(=O)c1c(O)c(C)c(O)c(Cc2c(O)c3c(c(C(=O)/C=C/c4ccccc4)c2O)OC(C)(C)C=C3)c1O
- inhibition [8]: > 65%
- inhibition [22]: 25%
- inhibition [31]: 25%

SMILES: O=C1C=C2C(=CCOC2O)O1 (stereo not drawn)
- inhibition [8]: > 65%
- inhibition [22]: 25%
- inhibition [31]: 25%

SMILES: C=C1C(=O)O[C@@H]2C[C@@H](C)[C@@H]3C=CC(=O)[C@@]3(C)[C@@H](O)[C@H]12
- inhibition [8]: 25%
- inhibition [22]: 25%
- inhibition [31]: 25%

SMILES: C[S+]([O-])c1ccc(-c2nc(-c3ccc(F)cc3)c(-c3ccncc3)[nH]2)cc1 (stereo not drawn)
- Activity [41]: Active

SMILES: CC1CC(C)(O)CC(C(O)CC2CC(=O)NC(=O)C2)C1=O (stereo not drawn)
- inhibition [8]: 25%
- inhibition [22]: 25%
- inhibition [31]: 25%

SMILES: C=C1C(=O)O[C@@H]2C[C@@]3(C)CCC[C@H](C)C3=C[C@H]12
- inhibition [8]: 25%
- inhibition [22]: 25%
- inhibition [31]: 25%

SMILES: CC[C@H]1CN2CCc3cc(OC)c(OC)cc3[C@@H]2C[C@@H]1C[C@H]1NCCc2c1[nH]c1ccc(O)cc21
- inhibition [8]: > 65%
- inhibition [22]: 25%
- inhibition [31]: 25%
